Assay results as given in patent EP1353624B1, “PHARMACEUTICAL COMPOSITIONS OF A NON-ENTERIC COATED PROTON PUMP INHIBITOR WITH A CARBONATE SALT AND BICARBONATE SALT COMBINATION” (TAP Pharmaceutical Products, Inc., priority 2000, dated 2002).
“And” between values parts separate entries of the source, which are not always exact repeats. Identical values can stand only once. Like-named read-outs stand apart in the source and are kept apart here. Values belong to the molecule of their own block, whether it stands above or below them.

Legend:
[1] = Storage stability of granules (potency and related substances); type: physicochemical; conditions: granules of Examples 4 and 5; 22°C for 21 days in closed containers
Experimental: Additionally, the granules prepared in Examples 4 and 5 were kept at 22°C for 21 days in closed containers.

[2] = Stability of lansoprazole in simulated gastric fluid (chromatographic assay); type: physicochemical; conditions: for % labeled amount of lansoprazole remaining: room temperature; for drug degraded: at 60 minutes in SGF
Experimental: Lansoprazole degrades in acid and is stable in base. This study was performed to determine 1) how quickly lansoprazole degrades in simulated gastric fluid (SGF); and 2) whether a high pH-buffering agent (carbicarb which is an equimolar mixture of sodium carbonate and sodium bicarbonate) could be used to retard the degradation of lansoprazole in SGF. All the experiments were conducted at room temperature (22°C ± 2°C).
The PPI test sample included lansoprazole (30 mg); mannitol (60 mg), meglumine (30 mg) and sodium hydroxide (3 mg).
Then 5.0 mL 2 N sodium hydroxide solution was added to the 0-minutes beaker with mixing. To each of the 5 remaining beakers, 10.0 mL of 8.4% carbicarb solution was added and stirred to mix. At the appropriate time interval (corresponding to the individual beaker numbers), 5.0 mL 2 N sodium hydroxide solution was added to stop the reaction. A portion of the resulting solution was diluted with pH 10 diluent. 10 µL of the resulting solution was then injected into the chromatographic system for assay.
Granular formulations of lansoprazole, including carbicarb were also made and tested. The stability of the granular formulations was tested according to the procedure of Example 3. The granular formulations of lansoprazole for this example were prepared as follows.
The coherent mass containing lansoprazole, carbicarb, lactose and sucrose solution was prepared as described above, in Example 3. This coherent mass was passed through a 20-mesh screen and the resulting granules were dried at 50°C for 12 hours. Granules containing 30-mg lansoprazole were transferred to an amber color container along with and an equal weight of flavor granules. 10 ml of water ((HPLC grade, Fisher Scientific, Pittsburgh, PA) was added to the container with gentle shaking to reconstitute the suspension. The resulting suspension of Lansoprazole was tested for stability in simulated gastric fluid as described earlier in Experiment 3.

[3] = 50 mL SGF
Experimental: To determine and compare the gastric acid neutralizing capacity of sodium bicarbonate solution to carbicarb solution, the following experiment was performed.
(§1) Aqueous solutions to be tested were made up from starting materials sodium carbonate, (anhydrous, available from Mallinckrodt) and sodium bicarbonate (available from Mallinckrodt). An 8.4% sodium bicarbonate solution and an 8.4% carbicarb solution (containing equimolar amounts of sodium bicarbonate and sodium carbonate) were tested as follows.
50 mL simulated gastric fluid (SGF, prepared according to the procedure described in Example 1) was pipetted into an Erlenmeyer flask. Four drops of methyl red, then four drops of phenolphthalein were then added to the flask. The pH of solution was monitored with a pH electrode. The solution to be tested was added to a 5-mL buret. The gastric media in the flask was then titrated with the test solution to an endpoint within 0.2 pH units of pH 6.5 (as indicated by the color change and pH reading). Then, titration was resumed, to an endpoint within 0.2 pH units of pH 8.0 (as indicated by the color change and pH reading).

[4] = Text: To quantify the gas produced by the neutralization of simulated gastric fluid (SGF) by carbicarb and by sodium bicarbonate in vitro, a standard CO2 assay technique was utilized (see USP 24 -NF 19 Beta, The United States Pharmacopeia 2000, p. 306)
as §1
The specimen gas was generated by reacting either 450 mL simulated gastric fluid (SGF) with 50 mL of the carbicarb solution; or by reacting 45 ml of simulated gastric fluid with 5 ml of sodium bicarbonate solution in a 500 mL Erlenmeyer flask.
To make Simulated Gastric Fluid (SGF) 1 g sodium chloride was transferred to a 500-mL volumetric flask. After adding 1.6 g pepsin, 25 mL 2 N hydrochloric acid was added and swirled to mix. The resultant solution could then be diluted to the appropriate volume with water.
The amount of gas generated in a twenty-minute time period was measured in an Orsat Glass Vapor Absorption Apparatus, by the standard assay technique. Two tests were run for each solution. The volume of CO2 generated was calculated from the difference in the initial volume of gas produced (ml) and the final volume of gas remaining (ml).

[5] = 45 mL SGF and 5 mL test solution, gas generated in twenty minutes
[6] = 450 mL SGF and 50 mL test solution, ten-fold scale-up of the 45 mL/5 mL run

stability on storage (potency and related substances) [1]: stable | % labeled amount of lansoprazole remaining ([2]; Sample in carbicarb solution, time in SGF 0 minutes): 98.0% | % labeled amount of lansoprazole remaining ([2]; Sample in carbicarb solution, time in SGF 5 minutes): 96.7% | % labeled amount of lansoprazole remaining ([2]; Sample in carbicarb solution, time in SGF 15 minutes): 97.4% | % labeled amount of lansoprazole remaining ([2]; Sample in carbicarb solution, time in SGF 30 minutes): 95.8% | % labeled amount of lansoprazole remaining ([2]; Sample in carbicarb solution, time in SGF 45 minutes): 94.4% | % labeled amount of lansoprazole remaining ([2]; Sample in carbicarb solution, time in SGF 60 minutes): 96.5% | % labeled amount of lansoprazole remaining ([2]; Sample in water, time in SGF 0 minutes): 99.5% | % labeled amount of lansoprazole remaining ([2]; Sample in water, time in SGF 5 minutes): 39.9% | % labeled amount of lansoprazole remaining ([2]; Sample in water, time in SGF 15 minutes): 10.1% | % labeled amount of lansoprazole remaining ([2]; Sample in water, time in SGF 30 minutes): 4.1% | % labeled amount of lansoprazole remaining ([2]; Sample in water, time in SGF 45 minutes): 2.7% | % labeled amount of lansoprazole remaining ([2]; Sample in water, time in SGF 60 minutes): 2.0% | time stable in simulated gastric fluid ([2]; administered with carbicarb into SGF): at least 60 minutes | degradation ([2]; administered with carbicarb into SGF, 60 minutes): < 5% | drug degraded ([2]; drug constituted with carbicarb solution): 3.5% | drug degraded ([2]; drug reconstituted with water): 98% | time stable in simulated gastric fluid ([2]; formulated with carbicarb as granules (Example 4)): at least 60 minutes | time stable in simulated gastric fluid ([2]; suspension reconstituted from lansoprazole/carbicarb granules (Example 5)): at least 60 minutes
Compound: Cc1c(OCC(F)(F)F)ccnc1C[S+]([O-])c1nc2ccccc2[nH]1 (stereo not shown) [lansoprazole]

Volume of Acid Neutralizer Solution Required ([3]; pH of simulated gastric fluid after adding neutralizer 1.2): 0 mL | Volume of Acid Neutralizer Solution Required ([3]; pH of simulated gastric fluid after adding neutralizer 2.0): 3.47 mL | Volume of Acid Neutralizer Solution Required ([3]; pH of simulated gastric fluid after adding neutralizer 3.0): 4.09 mL | Volume of Acid Neutralizer Solution Required ([3]; pH of simulated gastric fluid after adding neutralizer 4.0): 4.19 mL | Volume of Acid Neutralizer Solution Required ([3]; pH of simulated gastric fluid after adding neutralizer 5.0): 4.27 mL | Volume of Acid Neutralizer Solution Required ([3]; pH of simulated gastric fluid after adding neutralizer 6.0): 4.48 mL | Volume of Acid Neutralizer Solution Required ([3]; pH of simulated gastric fluid after adding neutralizer 7.0): 5.00 mL | Volume of Acid Neutralizer Solution Required ([3]; pH of simulated gastric fluid after adding neutralizer 8.0): 6.20 mL | volume added into the gastric media to reach the endpoint ([3]; titration endpoint (pH not given; method: pH 6.5, then pH 8.0)): 4.71 mL | Volume of CO2 ([4]; 45 mL SGF and 5 mL test solution, difference of initial and residual gas volume): 2.9 mL and 5.3 mL | Initial Gas Volume [4, 5]: 93.0 mL and 82.0 mL | Residual Gas Volume [4, 5]: 90.1 mL and 76.7 mL | Initial Gas Volume [4, 6]: 930.0 mL and 820.0 mL | Residual Gas Volume [4, 6]: 901.0 mL and 767.0 mL | Volume of CO2 [4, 6]: 29.0 mL and 53.0 mL
Compound: O=C([O-])O.[Na+] [8.4% sodium bicarbonate solution, sodium bicarbonate]
